Source: US4400199A, “Thiolcarbamate compounds and their use as herbicides” (priority 1981, dated 1983)
Converted amounts (≈) assume the structure as drawn. Like-named read-outs stand apart in the source and are kept apart here.

What was measured:
[1] = Experiment 3: acute toxicity to fish; assay type: in vivo, Black-carp fry; conditions: carp, water
Description: With respect to the compounds according to the present invention and the comparative compounds (Compound 10, Compound 12 and Compound 13), there were conducted tests on acute toxicity to carps.
In 25-liter water tanks made of glass was charged 20 liters of water. 12 Black-carp fry were released to each of the water tanks and bred while feeding for 7 days. Then, the whole quantity of water in each of the tanks was replaced with fresh water, and feeding to the carps was stopped. After three days, a prescribed amount of 1 weight % solution of a test compound in acetone was added to water in the water tank.
The number of survival fish in each tank was counted after 24 hours, 48 hours and 96 hours, successively.
The TLm (median tolerance limit=lethal concentration 50%) was determined by the Doudorff's method (Sewage & Ind. Wastes 23 (1951) 1380-1397).

[2] = tested on: paddy field weeds; experiment: Experiment 2: herbicidal effects against paddy field weeds, overall; assay type: in vivo; conditions: compared with Molinate (Compound 13)
[3] = tested on: Hotarui (Scirpus juncoides); experiment: Experiment 2: herbicidal effects against Hotarui (pot test, granules); assay type: in vivo; conditions: 25 days
[4] = tested on: barnyard grass; experiment: Experiment 2: herbicidal effects against barnyard grass (pot test, granules); assay type: in vivo, Echinochloa crus-galli; conditions: 2.5 leaf-stage, 25 days
[5] = tested on: rice plants; experiment: Experiment 2: phytotoxicity to rice plants (pot test, granules); conditions: for phytotoxicity rice plant: 25 days
[6] = tested on: Mizugayatsuri (Cyperus serotinus); experiment: Experiment 2: herbicidal effects against Mizugayatsuri (pot test, granules); assay type: in vivo; conditions: 25 days
[7] = tested on: carps; experiment: Experiment 4: subacute toxicity to fish; assay type: in vivo, 2-year-old carps; conditions: 0.2 ppm; 3 weeks
Description: (§1) With respect to the compounds according to the present invention and the comparative compounds listed in Table 4, there were conducted tests on subacute toxicity to 2-year-old carps having an average weight of 20 g.
(§2) Ten 2-year-old carps were released in each of 25-liter water tanks equipped with an air-blowing apparatus and acclimatized to the surroundings while feeding for 10 days. Water in each of the water tanks was continuously replaced with fresh water so that the residence time of water in the water tanks is 6 hours. Each test compound was added to a predetermined quantity of supply water to prepare a 0.2 ppm aqueous solution of each compound, and each of the aqueous solutions was continuously added to the water in the tank. After three weeks, the hematocrit values of all the survival carps were determined. The hematocrit value used herein is intended to mean a volume percentage of erythrocyte contained in the blood.

[8] = Experiment 4: subacute toxicity to fish; assay type: in vivo, 2-year-old carps; conditions: carp, water; 0.2 ppm; 3 weeks; read-out: Survival rate after 3 weeks
Description: as §1, §2

[9] = tested on: barnyard grass (Echinochloa crus-galli); experiment: Experiment 1: herbicidal effects against barnyard grass (pot test, emulsifiable concentrate); assay type: in vivo; conditions: in vivo
[10] = tested on: rice plants; conditions: in vivo
[11] = tested on: broad-leaf weeds; experiment: Experiment 2: herbicidal effects against broad-leaf weeds (pot test, granules); assay type: in vivo; conditions: 25 days

SMILES: CCN(CC)C(=O)SCCCCl [Compound 10, reference compound]
- LC50 at 48 h ([1]; 48 hrs, read-out: Median lethal concentration TLm (48hrs)): > 20 µg/mL
- LC50 at 96 h ([1]; 96 hrs, read-out: Median lethal concentration TLm (96hrs)): 18 µg/mL (≈ 85.8 µM)
- herbicidal activity (in words) [2]: excellent herbicidal activities
- Herbicidal activity Hotarui (Scirpus juncoides) ([3]; 150 g/10a.): 4 (70 to 89%)
- Herbicidal activity Hotarui (Scirpus juncoides) ([3]; 300 g/10a.): 4 (70 to 89%)
- Herbicidal activity Hotarui (Scirpus juncoides) ([3]; 600 g/10a.): 5 (more than 90%)
- herbicidal activity (barnyard grass) ([4]; 150 g/10a.): 5 (more than 90%)
- herbicidal activity (barnyard grass) ([4]; 300 g/10a.): 5 (more than 90%)
- herbicidal activity (barnyard grass) ([4]; 600 g/10a.): 5 (more than 90%)
- harmful effects to rice plants (in words) [5]: without harmful effects to rice plants
- phytotoxicity rice plant ([5]; 150 g/10a.): 0 (less than 10%)
- phytotoxicity rice plant ([5]; 300 g/10a.): 0 (less than 10%)
- phytotoxicity rice plant ([5]; 600 g/10a.): 0 (less than 10%)
- Herbicidal activity Mizugayatsuri (Cyperus serotinus) ([6]; 150 g/10a.): 4 (70 to 89%)
- Herbicidal activity Mizugayatsuri (Cyperus serotinus) ([6]; 300 g/10a.): 4 (70 to 89%)
- Herbicidal activity Mizugayatsuri (Cyperus serotinus) ([6]; 600 g/10a.): 5 (more than 90%)
- Average Hematocrit Value of survival fish [7]: 16%
- subacute toxicity to carps (in words) [7]: high subacute toxicity to carps
- survival of carps (in words) [7]: extremely low
- symptoms of anemia in carps (in words) [7]: remarkable symptons of anemia
- survival at 504 h [8]: 80%
- herbicidal activity (barnyard grass) [9]: 5 (key: 5: more than 90%; 4: 70 to 89%; 3: 50 to 69%; 2: 30 to 49%; 10 to 29%; less than 10%)
- herbicidal activity (in words) [9]: sufficient herbicidal activities
- phytotoxicity rice plant [10]: 0 (key: 5: more than 90%; 4: 70 to 89%; 3: 50 to 69%; 2: 30 to 49%; 10 to 29%; less than 10%)
- Herbicidal activity broad-leaf weeds ([11]; 150 g/10a.): 5 (more than 90%)
- Herbicidal activity broad-leaf weeds ([11]; 300 g/10a.): 5 (more than 90%)
- Herbicidal activity broad-leaf weeds ([11]; 600 g/10a.): 5 (more than 90%)
